Data published in ChEMBL document CHEMBL1126094, “Iodinated tomoxetine derivatives as selective ligands for serotonin and norepinephrine uptake sites” (J Med Chem, 1992).
Counter-ions that a name gives are not always drawn.

Assays:
Rattus norvegicus [1] = organism: Rattus norvegicus; test: Binding affinity against 5-HT uptake site, using [3H]citalopram as radioligand in rat cortical membrane; type: functional
Rattus norvegicus [2] = organism: Rattus norvegicus; test: Binding affinity against NE uptake site, using [3H]nisoxetine as radioligand in rat striatal membrane; type: functional, Striatum
Rattus norvegicus [3] = organism: Rattus norvegicus; test: Binding affinity against DA uptake site, using [125I]beta-CIT as radioligand in rat striatal membrane; type: functional, Striatum

Row | Structure (SMILES) | Ki (Rattus norvegicus [1]) [nM] | Ki (Rattus norvegicus [2]) [nM] | Ki (Rattus norvegicus [3]) [nM]
1 | CNCC[C@H](Oc1ccc(I)cc1)c1ccccc1 | 0.8 | 245 | –
2 | CNCC[C@H](Oc1ccc(I)cc1C)c1ccccc1 | 13.9 | 1160 | 636
3 | CNCC[C@@H](Oc1ccccc1I)c1ccccc1 | 17.1 | 0.24 | –
4 | CNCC[C@@H](Oc1ccc(C)cc1I)c1ccccc1 | 5.18 | 3.4 | 11300
5 | CNCC[C@H](Oc1ccc(C)cc1I)c1ccccc1 | 5.73 | 154 | 410
6 | CNCC[C@@H](Oc1cccc(I)c1)c1ccccc1 | 14.4 | 1.4 | 486
7 | CNCC[C@H](Oc1ccccc1I)c1ccccc1 | 13.1 | 9.35 | –
8 | CNCC[C@@H](Oc1ccc(I)cc1)c1ccccc1 | 1.27 | 3.21 | –
9 | CNCC[C@@H](Oc1ccc(I)c(C)c1)c1ccccc1 | 0.69 | 128 | 220
10 | CNCC[C@@H](Oc1ccc(I)cc1C)c1ccccc1 | 0.65 | 69 | 845
11 | CNCC[C@@H](Oc1ccccc1C)c1ccccc1 [ATOMOXETINE HYDROCHLORIDE] | 25.1 | – | –
12 | CNCC[C@H](Oc1cccc(I)c1)c1ccccc1 | 4 | 1.8 | 208
13 | CNCC[C@H](Oc1ccc(I)c(C)c1)c1ccccc1 | 0.3 | 351 | 200
